The text below walks through data of patent publication US20180344725A1, “QUINOLONE CHALCONE COMPOUNDS AND USES THEREOF” (priority 2015, published 2018).

The test system of data set [1] is 184B5. Description: SRB-based cytotoxicity assay. The data set is classed as cell-based. The following applies: Homo sapiens, 184B5 non-cancer. The procedure: (§1) For (anti)proliferation assays, 4,000-5,000 cells/well of the 96-well clustered dish were incubated for 16 hours, as described previously (Hu et al., 2008; Skehan et al., 1990). After 16 hours, culture medium was replaced with fresh medium containing different dilutions of test compounds dissolved in DMSO. Some wells were treated with 100 μl of 10% trichloroacetic acid (TCA) as a negative control and sham (medium with dimethyl sulfoxide; DMSO) treated cells were used as a positive control. After 72 hours post-incubation, medium was removed and cells were fixed with 10% TCA at 4° C. for 1 hour. TCA was removed and cells were washed with cold tap water, and plate was air-dried, followed by addition of 50 μl of 0.4% SRB staining solution to each well. After 30 minutes incubation, SRB staining solution was removed. Cells were washed with 1% acetic acid solution, and then washed with tap water to remove unbound staining solution, followed by air-drying. 200 μl of 10 mM (pH10.5) trizma base buffer was added to each well to solubilise macromolecules. SRB stained macromolecules were determined at a 540 nm wavelength using an automated plate reader (Synergy H4 Hybrid Multi-Mode Microplate Reader, BioTek, Winooski, Vt.). Cell growth (inhibition) was calculated by the following formula:
(§2) % cells proliferation=[(AT−CT)/(ST−CT)]×100
(§3) wherein AT=absorbance of treated cells, CT=absorbance of negative control cells, and ST=absorbance of sham treated cells. IC50 values were calculated from sigmoidal dose-response curves generated by two independent biological replicates, with quadruplicate in each set by using Graph Pad Prism v.5.04 software. […] The combinational index (CI) was calculated as described previously (Chou 2006). If the CI values were less than, equal to or more than 1, it indicates a synergistic, additive or antagonistic effect respectively (Chou 2006). CI values were determined from four independent experiments.

Data set [2] concerns HeLa. Description: SRB-based cytotoxicity assay. The data set is classed as cell-based. The note with it: for IC50: HeLa. The procedure: as §1, §2, §3
Data set [3] relates to MCF-10A. Description: SRB-based cytotoxicity assay. The following applies: for IC50: Homo sapiens; for Cell survival rate: MCF10A, 0.39 μM. The data set is classed as cell-based. How it is done: as §1, §2, §3
Data set [4] has as its system RPMI-8226 (myeloma). Description: SRB-based cytotoxicity assay. The data set is classed as cell-based. The following applies: 72 hours. How it is done:
as §1, §2, §3

In data set [5] the test system is KB-C-2. Description: SRB-based cytotoxicity assay, single and combination with paclitaxel. The data set is classed as cell-based, human. The following applies: for IC50: Homo sapiens, KB-C2, KB-C-2, multidrug-resistant; for Resistance (fold): KB-C-2 versus KB-C-1. How it is done: 1845B5 and MCF-10A non-cancer breast cell lines were cultured in DME/F12 medium supplemented with 10% fetal bovine serum, antibiotics and growth factors. […] The human small cell lung carcinoma H69 cell line and its multidrug-resistant MRP1-overexpressing isogenic H69AR cell line were purchased from ATCC. […] H69 cells grow as large multi-cell aggregates, making it difficult to accurately count cell numbers. […] The IL-6 dependent bortezomib-resistant ANBL6-BR cell line was further supplemented with 1 ng/ml of IL-6. The MCF10AT1 and MCF10CA1a cell lines are isogenic to the MCF10A cell line, and obtained from Dr. Valerie Weaver at the Center for Bioengineering and Tissue Regeneration, UCSF, CA, USA. […] The drug-resistant cells were cultured in the absence of drug for at least one passage before carrying out experiments. All cells were maintained in a humidified incubator at 37° C. […] Cell line authentication was performed using short tandem repeat (STR) profiling. […] Some wells were treated with 100 μl of 10% trichloroacetic acid (TCA) as a negative control and sham (medium with dimethyl sulfoxide; DMSO) treated cells were used as a positive control. […] TCA was removed and cells were washed with cold tap water, and plate was air-dried, followed by addition of 50 μl of 0.4% SRB staining solution to each well. After 30 minutes incubation, SRB staining solution was removed. Cells were washed with 1% acetic acid solution, and then washed with tap water to remove unbound staining solution, followed by air-drying. 200 μl of 10 mM (pH10.5) trizma base buffer was added to each well to solubilise macromolecules. […] Cell growth (inhibition) was calculated by the following formula: % cells proliferation=[(AT-CT)/(ST-CT)]×100 wherein AT=absorbance of treated cells, CT=absorbance of negative control cells, and ST=absorbance of sham treated cells. […] CI values were determined from four independent experiments.

Data set [6] has as its system purified porcine tubulin. Put plainly: Microtubule polymerization assay. The data set is classed as biochemical. The note with it: 1.0 mM GTP, 1 hour at 37° C. How it is done:
The effects of the tested CTR compounds of the present disclosure on the assembly of purified tubulin were determined using a tubulin polymerization kit according to the manufacturer's instructions (Cytoskeleton Inc., Denver, Colo.). Paclitaxel (provided in the same kit), nocodazole, and colchicine (Santa Cruz, Calif.) were used as controls for the assay. The absorbent-based assay kit is based on the principle that the light scattered by the microtubules is directly proportional to the polymer mass of the microtubules when measured at 37° C. at a wavelength of 340 nm. The fluorescence-based assay kit is on the principle that fluorescent reporter molecules are incorporated into microtubules as the polymerization process being occurred. The fluorescence enhancement was measured for one hour at one-minute intervals, at the excitation of 350 nm and the emission of 430 nm. Absorbance or fluorescence was measured with an automated plate reader (Synergy H4 Hybrid Multi-Mode Microplate Reader, Bio-Tek).

The nature of data set [7]: Kidney histology (H&E). The data set is classed as in vivo, mice. The note with it: day 30; paclitaxel 10 mg/kg; CTR 30 mg/kg; or paclitaxel 5 mg/kg + CTR 15 mg/kg. How it is done:
Animals were monitored for food and water consumption every day, and their body weights and tumor volumes were measured twice per week. Tumor volumes were measured with a digital caliper and were determined by using the following formula: ½ length×width^2. Blood samples were collected via cardiac puncture and processed further for ALT and AST measurements. The animals were then immediately euthanized by carbon dioxide. Tumors and vital organs (spleen, kidney, liver and lung) were collected and fixed in 10% buffered formalin at 4° C. overnight before being processed for paraffin embedding. The paraffin-embedded blocks were then cut into 4-5 μm thick sections. Each section of tumors and organs was stained with hematoxylin and eosin (H&E).
Changes in body weight, hemoglobin (Hb) and the amount and ratio of alanine transaminase (ALT)/aspartate transaminase (AST) were used to measure toxic effects. In addition, vital organs (liver, spleen, kidney and lung) were analyzed by […] after they were harvested, fixed, processed, paraffin-embedded, sectioned, and stained as described above.
ATH490 mice were treated as described in Table 11. At day 30, kidneys were harvested, stained with H&E, and observed under a Zeiss EPI-fluorescent microscope (40× objective).

[8] abbreviates: MCF-10A non-cancer, SRB, Table 2.
Setting [9] is: single agent at 0.5IC50 (CTR-17 0.325 μM; CTR-20 0.125 μM; paclitaxel 11.5 nM).
Setting [10] is: single agent at IC50 (CTR-17 0.65 μM; CTR-20 0.25 μM; paclitaxel 23 nM).
Setting [11] is: MCF-10A, MCF10A non-cancer, 72 hours, Table 4.

The IC50 is the midpoint of a concentration-inhibition curve. In the case of `COc1ccccc1C(=O)/C=C/c1cc2ccccc2[nH]c1=O` [CTR-17, (E)-3-(3-(2-Methoxyphenyl)-3-oxoprop-1-enyl)quinolin-2(1H)-one], the IC50 in data set [1] (SRB, Table 2) is 3490 ± 30 nM; in data set [2] (Homo sapiens, SRB, Table 2), 330 ± 60 nM; in data set [3] (setting [8]) it was 3950 ± 140 nM; in data set [4] (Homo sapiens), 360 ± 40 nM; in data set [5], 650 ± 160 nM. Besides, the Cell survival rate in data set [3] (72 hours) turned out to be 95%. Besides, the “Resistance (fold)” value in data set [5] is 1.71 fold. Also, the Cell survival rates in data set [5] (setting [9]) is 80.0 ± 11.4; in data set [5] (setting [10]), 53.2 ± 12.6. Further, in data set [6], the “effect on tubulin/microtubule polymerization” value is “inhibited tubulin polymerization”. In addition, in data set [7], the “effects on the kidney” value is on record as “generally did not cause any notable ill-effects to the kidney”.

On to `CC(=O)O[C@H]1C(=O)[C@@]2(C)[C@H]([C@H](OC(=O)c3ccccc3)[C@]3(O)C[C@H](OC(=O)[C@H](O)[C@@H](NC(=O)c4ccccc4)c4ccccc4)C(C)=C1C3(C)C)[C@]1(OC(C)=O)CO[C@@H]1C[C@@H]2O` [Paclitaxel, reference compound], for which the “Resistance (fold)” value in data set [5] turned out to be 11.48 fold. Besides, the Cell survival rates in data set [5] (single agent at 0.125IC50 (paclitaxel 2.875 nM)) was found to be 99.6 ± 0.3; in data set [5] (single agent at 0.25IC50 (paclitaxel 5.75 nM)) it was 89.5 ± 6.0; in data set [5] (setting [9]) it was 75.9 ± 7.7; in data set [5] (setting [10]), 48.4 ± 5.8. Moreover, in data set [7], the “effects on the kidney” value was “approximately 1 out of 5 mice showed renal abnormalities”.

Consider `COc1ccc2[nH]c(=O)c(/C=C/C(=O)c3ccccc3OC)cc2c1` [CTR-20, (E)-6-Methoxy-3-(3-(2-methoxyphenyl)-3-oxoprop-1-enyl) quinolin-2(1H)-one], for which the IC50 in data set [1] (SRB, Table 2) amounted to 1240 ± 60 nM; in data set [2] (Homo sapiens, SRB, Table 2), 100 ± 20 nM; in data set [3] (setting [8]), 2370 ± 210 nM; in data set [4] (Homo sapiens) it was 230 nM; in data set [5] it was 250 ± 30 nM. Moreover, the “preferentially kill cancer over non-cancer cells” value in data set [2] (HeLa versus MCF-10A) was not above 24 times. Also, the Cell survival rate in data set [3] (72 hours) came out at 75%. In addition, the “Resistance (fold)” value in data set [5] was 2.50 fold. Besides, the Cell survival rates in data set [5] (setting [9]) is recorded as 76.0 ± 9.6; in data set [5] (setting [10]) it was 56.8 ± 8.4. For the same compound, the “effect on tubulin/microtubule polymerization” value in data set [6] was “inhibited tubulin polymerization”. Also, the “effects on the kidney” value in data set [7] was “generally did not cause any notable ill-effects to the kidney”.

Turning to `COc1ccccc1C(=O)/C=C/c1cc2cccc(OC)c2[nH]c1=O` [CTR-21, (E)-8-methoxy-3-(3-(2-methoxyphenyl)-3-oxoprop-1-enyl) quinolin-2(1H)-one], the IC50 in data set [1] (72 hours, Table 4) was found to be 37 ± 2.5 nM; in data set [2] (72 hours, Table 4), 11.9 ± 1.4 nM; in data set [3] (setting [11]) it was 20.3 ± 2.47 nM; in data set [4] (Table 4) it was 5.34 ± 0.89 nM. For the same compound, the “effect on tubulin/microtubule polymerization” value in data set [6] is listed as “microtubule polymerization inhibitors”.

In the case of `CCOc1ccccc1C(=O)/C=C/c1cc2ccccc2[nH]c1=O` [CTR-32, (E)-3-(3-(2-ethoxyphenyl)-3-oxoprop-1-enyl)quinolin-2(1H)-one], the IC50 in data set [1] (72 hours, Table 4) came out at 52 ± 7.35 nM; in data set [2] (72 hours, Table 4) it was 12.9 ± 0.35 nM; in data set [3] (setting [11]), 30.1 ± 1.61 nM; in data set [4] (Table 4), 6.29 ± 1.43 nM. The “effect on tubulin/microtubule polymerization” value in data set [6] is “microtubule polymerization inhibitors”.
